Results taken from US20250099557A1, “ANTIBIOTIC PHARMACEUTICAL COMPOSITION CAPABLE OF SUBCUTANEOUS ADMINISTRATION” (SHANGHAI BAO PHARMACEUTICALS CO., LTD., priority 2021, published 2025).
Like-named read-outs stand apart in the source and are kept apart here.

Experiments:
[1] = molecular target: T1, HAase (Homo sapiens, UniProt P38567); assay: Compatibility study of HAase and antibiotic in solution: HAase activity; type: biochemical; conditions: 15 min room temperature; for Final concentration of HAase (units/ml) 150: HAase added to 150 units/ml; for Final concentration of HAase (units/ml) 500: HAase added to 500 units/ml; for Final concentration of HAase (units/ml) 2000: HAase added to 2000 units/ml; for Final concentration of HAase (units/ml) 6000: HAase added to 6000 units/ml; for interference with the activity of HAase: antibiotic and HAase in physiological saline
T1 construct: made in house
T1 sequence (P38567 36-482): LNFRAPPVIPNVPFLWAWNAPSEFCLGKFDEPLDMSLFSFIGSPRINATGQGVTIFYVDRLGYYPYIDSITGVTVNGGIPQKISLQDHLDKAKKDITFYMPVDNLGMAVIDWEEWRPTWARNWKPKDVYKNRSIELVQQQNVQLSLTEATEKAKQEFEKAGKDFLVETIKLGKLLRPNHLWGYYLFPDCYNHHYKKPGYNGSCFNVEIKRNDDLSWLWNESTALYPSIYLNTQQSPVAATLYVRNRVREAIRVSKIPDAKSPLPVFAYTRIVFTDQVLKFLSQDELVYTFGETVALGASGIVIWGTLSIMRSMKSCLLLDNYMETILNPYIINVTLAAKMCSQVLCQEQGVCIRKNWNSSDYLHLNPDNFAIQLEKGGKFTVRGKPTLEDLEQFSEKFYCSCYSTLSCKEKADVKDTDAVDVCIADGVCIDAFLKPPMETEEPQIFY
Procedure: “HAase activity refers to the ability of HAase to catalytically cleave hyaluronic acid. The Chinese Pharmacopoeia provides a method for determining the HAase activity, indirectly by measuring the amount of remaining higher-molecular-weight hyaluronic acid substrate after the enzyme is allowed to catalytically cleave hyaluronic acid at 37° C. for 30 min. A standard reference solution can be used in the assay to determine the relative activity (in units) of any HAase. In-vitro assays for the determination of HAase are known in the art. Exemplary assays include micro-turbidimetric assay described below, which indirectly measures the cleavage of hyaluronic acid by HAase by detecting an insoluble precipitate formed when uncleaved hyaluronic acid binds to serum albumin. The reference standard can be used, for example, to generate a standard curve, so as to determine the activity of the tested HAase in units.
The compatibility of HAase and an antibiotic was studied by preparing a solution comprising the two substances. A dry Meropenem power for injection was dissolved in physiological saline to give a concentration of 5 mg/ml and 50 mg/ml, and then HAase was added to give a final concentration of 150, 500, 2000, and 6000 units/ml respectively. After preparation, the solution was left to stand at room temperature for 15 min. The appearance of the solution was observed, and the concentration of HAase was determined.
The compatibility of HAase and an antibiotic was studied by preparing a solution comprising the two substances. A dry Ceftriaxone sodium power for injection was dissolved in physiological saline to give a concentration of 50 mg/ml and 250 mg/ml, and then HAase was added to give a final concentration of 150, 500, 2000, and 6000 units/ml respectively. After preparation, the solution was left to stand at room temperature for 15 min. The appearance of the solution was observed, and the concentration of HAase was determined.
The compatibility of HAase and an antibiotic was studied by preparing a solution comprising the two substances. A dry Azithromycin power for injection was dissolved in physiological saline to give a concentration of 10 mg/ml and 100 mg/ml, and then HAase was added to give a final concentration of 150, 500, 2000, and 6000 units/ml respectively. After preparation, the solution was left to stand at room temperature for 15 min. The appearance of the solution was observed, and the concentration of HAase was determined.
The compatibility of HAase and an antibiotic was studied by preparing a solution comprising the two substances. A dry Cefradine powder for injection was dissolved in physiological saline to give a concentration of 50 mg/ml and 250 mg/ml, and then HAase was added to give a final concentration of 150, 500, 2000, and 6000 units/ml respectively. After preparation, the solution was left to stand at room temperature for 15 min. The appearance of the solution was observed, and the concentration of HAase was determined.
The compatibility of HAase and an antibiotic was studied by preparing a solution comprising the two substances. A dry Teicoplanin powder for injection was dissolved in physiological saline to give a concentration of 10 mg/ml and 70 mg/ml, and then HAase was added to give a final concentration of 150, 500, 2000, and 6000 units/ml respectively. After preparation, the solution was left to stand at room temperature for 15 min. The appearance of the solution was observed, and the concentration of HAase was determined.
The compatibility of HAase and an antibiotic was studied by preparing a solution comprising the two substances. A dry Ceftazidime powder for injection was dissolved in physiological saline to give a concentration of 20 mg/ml and 200 mg/ml, and then HAase was added to give a final concentration of 150, 500, 2000, and 6000 units/ml respectively. After preparation, the solution was left to stand at room temperature for 15 min.

[2] = in vivo; conditions: male, ICR, mouse
Description: (§1) The difference in pharmacokinetics between subcutaneous administration of antibiotics combined with recombinant human HAase and traditional intravenous administration of antibiotics in mice was studied. Ceftriaxone, Ceftazidime, Ertapenem, and Teicoplanin were used as model antibiotics. A total of 48 ICR male mice were used in each antibiotic model, and divided into two groups, each having 24 mice. The two groups include a tail vein injection group, and a subcutaneous administration group of antibiotics combined with recombinant human HAase. The single dose was 100-200 mg/kg, and the drugs was respectively formulated and administered according to the scheme for each group. Blood samples were taken 5 min, 15 min, 30 min, 45 min, 1 hr, 2 hrs, 4 hrs and 8 hrs after administration. The concentration of each model antibiotic in the sample was detected by LC-MS and the pharmacokinetic parameters were calculated.

[3] = molecular target: T1, HAase; assay: Compatibility study of HAase and antibiotic in solution: HAase activity; type: biochemical; conditions: 15 min room temperature
[4] = Pharmacokinetics of model antibiotics in mice: tail vein injection vs subcutaneous administration combined with recombinant human HAase; conditions: for AUC(0-t): AUClast
Description: as §1

[5] = male, ICR, mouse, in vivo, sc
Description: as §1

[6] = antibiotic 20 mg/ml in physiological saline
[7] = antibiotic 200 mg/ml in physiological saline
[8] = antibiotic 30 mg/ml in physiological saline
[9] = antibiotic 300 mg/ml in physiological saline
[10] = male, ICR, mouse, blood, iv, ICR male mice, administration by injection via tail vein, single dose 100-200 mg/kg
[11] = male, ICR, mouse, blood, sc, ICR male mice, conventional subcutaneous administration, single dose 100-200 mg/kg
[12] = male, ICR, mouse, blood, sc, ICR male mice, in combination with recombinant human HAase for subcutaneous administration, single dose 100-200 mg/kg
[13] = antibiotic 50 mg/ml in physiological saline
[14] = antibiotic 250 mg/ml in physiological saline

## CC(C)(O/N=C(\C(=O)N[C@@H]1C(=O)N2C(C(=O)[O-])=C(C[n+]3ccccc3)CS[C@H]12)c1csc(N)n1)C(=O)O [Ceftazidime]
[1]; [6]
  Final concentration of HAase (units/ml) 150: 145 units/ml
  Final concentration of HAase (units/ml) 500: 501 units/ml
  Final concentration of HAase (units/ml) 2000: 2026 units/ml
  Final concentration of HAase (units/ml) 6000: 6027 units/ml
[1]; [7]
  Final concentration of HAase (units/ml) 150: 148 units/ml
  Final concentration of HAase (units/ml) 500: 488 units/ml
  Final concentration of HAase (units/ml) 2000: 2001 units/ml
  Final concentration of HAase (units/ml) 6000: 5981 units/ml
[1]
  interference with the activity of HAase: does not interfere with the activity of HAase
[2]; iv
  Tmax: 5 min
[2]; sc
  Tmax: 15 min

## C[C@@H](O)[C@H]1C(=O)N2C(C(=O)O)=C(S[C@@H]3CN[C@H](C(=O)Nc4cccc(C(=O)O)c4)C3)[C@H](C)[C@H]12 [Ertapenem]
[1]; [8]
  Final concentration of HAase (units/ml) 150: 152 units/ml
  Final concentration of HAase (units/ml) 500: 501 units/ml
  Final concentration of HAase (units/ml) 6000: 6121 units/ml
[1]; [9]
  Final concentration of HAase (units/ml) 500: 511 units/ml
  Final concentration of HAase (units/ml) 2000: 1974 units/ml
  Final concentration of HAase (units/ml) 6000: 5990 units/ml
[1]
  interference with the activity of HAase: not interfere with the activity of HAase
[3]; antibiotic 30 mg/ml in physiological saline, HAase added to 2000 units/ml
  Final concentration of HAase (units/ml) 2000: 2016 units/ml
[3]; antibiotic 300 mg/ml in physiological saline, HAase added to 150 units/ml
  Final concentration of HAase (units/ml) 150: 156 units/ml
[4]; ICR male mice, in combination with recombinant human HAase for subcutaneous administration, single dose 100-200 mg/kg
  Tmax: 15 min
[4]; male, ICR, mouse, blood, iv
  Tmax: 5 min
[4]; [10]
  AUC(0-t): 450 µg·h/mL
  Cmax: 368 µg/mL
[4]; male, ICR, mouse, blood, sc
  Tmax: 15 min
[4]; [11]
  AUC(0-t): 442 µg·h/mL
  Cmax: 318 µg/mL
[4]; [12]
  AUC(0-t): 459 µg·h/mL
  Cmax: 333 µg/mL

## CO/N=C(\C(=O)N[C@@H]1C(=O)N2C(C(=O)O)=C(CSc3nc(=O)c(=O)[nH]n3C)CS[C@H]12)c1csc(N)n1 [Ceftriaxone]
[1]; [13]
  Final concentration of HAase (units/ml) 150: 162 units/ml
  Final concentration of HAase (units/ml) 500: 510 units/ml
  Final concentration of HAase (units/ml) 2000: 1986 units/ml
  Final concentration of HAase (units/ml) 6000: 6067 units/ml
[1]; [14]
  Final concentration of HAase (units/ml) 150: 162 units/ml
  Final concentration of HAase (units/ml) 500: 507 units/ml
  Final concentration of HAase (units/ml) 2000: 1962 units/ml
  Final concentration of HAase (units/ml) 6000: 6232 units/ml
[1]
  interference with the activity of HAase: does not interfere with the activity of HAase
[5]
  Tmax: 15 min
[2]; iv
  Tmax: 5 min
